Reference: patent US20150283227A1, “SYNTHETIC ENV PROTEINS” (priority 2012, published 2015)
Read-outs that look alike come from different tables or passages of the source. Where a SMILES comes first, the peptide text is derived from it. [ ]: non-standard residue; d: D form. The star is where a group is joined. ξ: configuration not given here. X1 = CC(=O)NC1C(O)[C@H](O)C(CO)O[C@H]1O[C@@H]1C(CO)O[C@@H](N*)C(NC(C)=O)C1O; Orn(CH(NH2)2) = NC(N)NCCC[C@H](N)C(=O)O; Ile(3ξ) = CCC(C)[C@H](N)C(=O)O; Thr(3ξ) = CC(O)[C@H](N)C(=O)O

Legend:
CH01 UCA = assay: SPR binding to unmutated ancestor of CH01; parameters: species or system human
Experimental: (§1) Only the V1/V2 mAb CH58 bound to the glycan-deficient (aglycone) peptide (FIG. 9A). V1/V2 bNAbs ([…], CH01) bound weakly to V1/V2 GlcNAc2 peptide (FIG. 9B). In contrast, both bNAbs PG9 and CH01 bound avidly to the glycopeptides, V1/V2 Man3GlcNAc2 and V1/V2 Man5GlcNAc2 (FIGS. 9C and 9D). CH58 bound weakly to both glycopeptides. Each of the mAbs was captured on a human Fc specific IgG directly immobilized on a BIAcore CM5 sensor chip. Each of the V1/V2 peptides (3 min at 50 uL/min) was injected over the mAb captured surface and SPR binding was monitored on a BIAcore 3000 instrument. Non-specific binding of peptides was subtracted following measurement of signal on a surface with a control ant-RSV mab Synagis.
(§2) The binding Kd (disassociation constant) of the UAs ranges from about 0.15 to 0.2 μM.
(§3) V1V2 glycopeptide binding Kd and rate constant measurements were carried out on BIAcore 3000 instruments as described earlier (Alam et al, Immunol. 178(7):4424-4435 (2007), Alam et al, J. Virol. 82(1):115-125 (2008)). Anti-human IgG Fc antibody (Sigma Chemicals) was immobilized on either a CM3 or CM5 (CM3 for kinetics and Kd determination) sensor chip (to minimize non-specific binding of peptides to chip matrix) to about 5000 Resonance Unit (RU) and each antibody was captured to about 100-200 RU on individual flow cells, in addition to one flow cell with the control Synagis mAb on the same sensor chip. Non-specific binding of V1V2 glycopeptide was double-referenced by substracting the control surface and blank buffer flow for each mAb-V1V2 glycopeptide binding interaction. […] SPR curve fitting analysis was performed using global fit of multiple titrations to the 1:1 Langmuir model. All data analysis was performed using the BIAevaluation 4.1 analysis software (GE Healthcare).

CH58 UCA = assay: SPR binding to unmutated ancestor of CH58; parameters: species or system human; conditions: Example 1
Experimental: as §1, §3

[1] = Circular dichroism analysis of V1V2 peptides; assay type: physicochemical; conditions: dimerized in 20% DMSO-phosphate buffer about 20 h
Experimental: Circular dichroism (CD) spectra of V1/V2 peptides were measured on an Aviv model 202 spectropolarimeter using a 1 mm path length quartz cuvette. The 20% DMSO-treated peptides were dialyzed against 20 mM phosphate buffer, pH 7.0 to remove DMSO using a dialysis cassette of MW cut-off 3500 Da. The CD spectra of peptides (at 100 200 μg/ml concentration) in phosphate buffer (pH 7.4) were recorded at 25° C. Three scans of the CD spectra of each peptide were averaged and the CD signal from phosphate buffer was subtracted out.

V2 mAb CH58 = assay: SPR binding of V1V2 peptides/glycopeptides to captured V2 mAb CH58; parameters: species or system human; conditions: Example 6; peptide solubilized/oxidized in DMSO, 1-50 μg/mL
PG9 UCA = assay: SPR binding to unmutated ancestor of PG9; parameters: species or system human
Experimental: as §1, §2, §3

BnAb PG9 = assay type: binding, human
Experimental: V1V2 glycopeptide binding Kd and rate constant measurements were carried out on a BIAcore 3000 instrument using an anti-human Ig Fc capture assay as described earlier (Alam, S. M.; McAdams, M.; Boren, D.; Rak, M.; Scearce, R. M.; Gao, F.; Camacho, Z. T.; Gewirth, D.; Kelsoe, G.; Chen, P.; Haynes, B. F. J. Immunol. 2007, 178, 4424-4435.). Anti-human IgG Fc antibody (Sigma Chemicals) was immobilized on a CM5 sensor chip to about 10000 response units (RU), and each antibody was captured to about 300 RU. Anti-RSV Synagis mAb was captured on the same sensor chip as a control surface. Non-specific binding and drift in signal was double referenced by subtracting binding to the control surface and blank buffer flow for each of the peptide binding interactions. All curve-fitting analyses were performed using global fit of multiple titrations to the 1:1 Langmuir model. All data analysis was performed using the BIAevaluation 4.1 analysis software (GE Healthcare).

V2 mAb CH59 = assay: SPR binding of V1V2 peptides to captured V2 mAb CH59; parameters: species or system human; conditions: Example 6; peptide oxidized by solubilization in DMSO, 50 ug/mL
Text: FIGS. 42A-42D. Selective binding of V1V2 BnAbs to mannose derivatized V1V2 glycopeptides but not to aglycone or GlcNAc2 V1V2 peptides. SPR curves showing preferential binding of PG9 and CH01 BnAbs to Man5—(FIG. 42A) and Man3—(FIG. 42B) GlcNAc2 V1V2 glycopeptides but not to GlcNAc2 (FIG. 42C) and aglycone (FIG. 42D) peptides. By contrast, V2 mAbs CH58 and CH59 bound to both aglycone ([…]) and GlcNAc2 (FIG. 42D) V1V2 peptides. Each V1V2 peptide was oxidized by solubilization in DMSO and injected over the indicated MAb at 50 ug/mL. Data shown is after reference subtraction of non-specific signal measured over the control mAb (Synagis). Binding data are representative of at least three experiments for Man5 and Man3 V1V2 peptides and two experiments for GlcNAc2 and aglycone V1V2.
V1V2 glycopeptide binding Kd and rate constant measurements were carried out on BIAcore 3000 instruments as described earlier (Alam et al, Immunol. 178(7):4424-4435 (2007), Alam et al, J. Virol. 82(1):115-125 (2008)). Anti-human IgG Fc antibody (Sigma Chemicals) was immobilized on either a CM3 or CM5 (CM3 for kinetics and Kd determination) sensor chip (to minimize non-specific binding of peptides to chip matrix) to about 5000 Resonance Unit (RU) and each antibody was captured to about 100-200 RU on individual flow cells, in addition to one flow cell with the control Synagis mAb on the same sensor chip. […]

BnAb CH01 = assay: SPR binding of V1V2 peptides/glycopeptides to captured mAb CH01; parameters: species or system human
[2] = target: Man3GlcNAc2 V1V2 glycopeptide, DMSO-oxidized disulfide-linked dimer (HIV-1 strain AE.CM244 (A244)); assay: SPR kinetics, mAb captured on anti-IgG, DMSO-oxidized dimer injected; 1:1 Langmuir
[3] = target: Man5GlcNAc2 V1V2 glycopeptide, DMSO-oxidized disulfide-linked dimer (HIV-1 strain AE.CM244 (A244)); assay: as above
[4] = Example 6, peptide solubilized/oxidized in DMSO, 50 μg/mL

CCC(C)[C@H](NC(=O)[C@@H]1CCCN1C(=O)[C@@H](NC(=O)[C@@H](NC(=O)[C@H](CC(=O)O)NC(=O)[C@H](CC(C)C)NC(=O)[C@H](CCCCN)NC(=O)[C@H](Cc1ccc(O)cc1)NC(=O)[C@H](Cc1ccccc1)NC(=O)[C@H](CC(C)C)NC(=O)[C@H](C)NC(=O)[C@H](Cc1cnc[nH]1)NC(=O)[C@@H](NC(=O)[C@H](CCCCN)NC(=O)[C@H](CCC(N)=O)NC(=O)[C@H](CCCCN)NC(=O)[C@H](CCCCN)NC(=O)[C@H](CC(=O)O)NC(=O)[C@H](CCCNC(=N)N)NC(=O)[C@H](CC(C)C)NC(=O)[C@H](CCC(=O)O)NC(=O)[C@@H](NC(=O)[C@@H](NC(=O)[C@H](CCSC)NC(=O)[C@H](CC(=O)N[C@@H]1OC(CO)[C@@H](O[C@@H]2OC(CO)[C@@H](O)C(O)C2NC(C)=O)C(O)C1NC(C)=O)NC(=O)[C@H](Cc1ccccc1)NC(=O)[C@H](CO)NC(=O)[C@H](CS)NC(=O)[C@H](CC(=O)N[C@@H]1OC(CO)[C@@H](O[C@@H]2OC(CO)[C@@H](O)C(O)C2NC(C)=O)C(O)C1NC(C)=O)NC(=O)[C@H](CCCNC(N)N)NC(=O)[C@@H](NC(=O)[C@H](CCC(=O)O)NC(=O)[C@H](CC(=O)O)NC(=O)[C@@H](NC(=O)[C@@H](NC(C)=O)C(C)CC)C(C)O)C(C)C)C(C)O)C(C)O)C(C)C)C(C)CC)C(C)C)C(N)=O (stereo partly drawn) [GlcNAc2 V1V2] (Ac-[Ile(3ξ)][Thr(3ξ)]DEV[Orn(CH(NH2)2)]D(X1)CSFD(X1)M[Thr(3ξ)][Thr(3ξ)]ELRDKKQKVHALFYKLD[Ile(3ξ)]VP[Ile(3ξ)]-NH2)
SPR binding to CH01 UA (CH01 UCA; Example 1): slow association indicating weak affinity interaction | SPR binding to CH01 UCA (CH01 UCA; Example 6): neither UCAs bound | SPR binding to CH58 UA (CH58 UCA): no binding | β-strand (CD spectra deconvolution, K2D3) [1]: 17% | SPR binding to CH58 (V2 mAb CH58): retained | SPR binding to PG9 UA (PG9 UCA; Example 1): no binding | SPR binding to PG9 UCA (PG9 UCA; Example 6): neither UCAs bound | SPR binding to PG9 (BnAb PG9; Example 1, peptide injected over mAb captured on anti-human Fc, BIAcore 3000): bound weakly | SPR binding to PG9 (BnAb PG9; Example 5, peptides 200 μg/mL, glycans 25 μg/mL over captured PG9, listed as 3): did not bind | SPR binding to PG9 (BnAb PG9; Example 5, peptides 200 μg/mL, glycans 25 μg/mL over captured PG9, listed as V1V2 GlcNAc2): minimal to no binding | SPR binding to PG9 (BnAb PG9; [4]): no binding | SPR binding to CH59 (V2 mAb CH59): bound | SPR binding to CH01 (BnAb CH01; Example 1, peptide injected over captured mAb): bound weakly | SPR binding to CH01 (BnAb CH01; [4]): no binding

CH01 (antibody)
Kd [2]: 32.1 nM | koff [2]: 0.00032 s⁻¹ | kon [2]: 9970 M⁻¹ s⁻¹ | Kd [3]: 45.5 nM | koff [3]: 0.000302 s⁻¹ | kon [3]: 6640 M⁻¹ s⁻¹

CC(=O)N[C@H]1[C@H](O[C@H]2[C@H](O)[C@@H](NC(C)=O)C(O)O[C@@H]2CO)O[C@H](CO)[C@@H](O[C@@H]2O[C@H](CO[C@H]3O[C@H](CO[C@H]4O[C@H](CO)[C@@H](O)[C@H](O)[C@@H]4O)[C@@H](O)[C@H](O[C@H]4O[C@H](CO)[C@@H](O)[C@H](O)[C@@H]4O)[C@@H]3O)[C@@H](O)[C@H](O[C@H]3O[C@H](CO)[C@@H](O)[C@H](O)[C@@H]3O)[C@@H]2O)[C@@H]1O (stereo partly drawn) [Man5GlcNAc2 glycan alone, reference compound]
SPR binding to PG9 (BnAb PG9; Example 5, peptides 200 μg/mL, glycans 25 μg/mL over captured PG9): not detected
